Reference: patent US7064124B2, “NF-κB inhibitor containing substituted benzoic acid derivative as active ingredient” (Daiichi Suntory Pharma Co., Ltd., priority 2001, dated 2006)

Assays:
[1] = test system: NF-κB; assay: NF-κB luciferase reporter assay in A549/NF-κBLuc cells stimulated with IL-1β; type: cell-based, human; conditions: Homo sapiens, A549, A549/NF-κBLuc cells; compound added 1 hour before IL-1β, then 3 hours incubation; luciferase activity; read-out: NF-κB Inhibitory Activity (IC50)
Protocol: Effect on Human Lung Cancer-Derived Cell A549 (A549/NF-κBluc) Containing Stably Introduced Luciferase Plasmid (pNFκB-Luc, Stratagene. U.S.A.) Regulated by NF-κB Binding Sequence
Using Lipofectamine (Lifetech Oriental, Tokyo), pNFκB-Luc and pSV2neo (Clontech, U.S.A.) were co-transfected into the A549 cell (ATCC CCL185) and G418 sulfate (1 mg/ml, Lifetech Oriental) was added to the culture medium to select cells containing stably introduced pNFκB-Luc A549/NF-κBLuc.
The compound obtained in Examples each was added to A549/NF-κBLuc and one hour after that, IL-1β capable of activating NF-κB was added. The incubation was further continued for 3 hours.
NF-κB Inhibitory Activity (IC50) of Substituted Benzoic Acid Derivitives: […]

| SMILES | IC50 [1] | melting point [°C] |
| --- | --- | --- |
| COC1=C(OC)C(=O)C(Cc2ccc(O)c(C(=O)Nc3ccc(Cl)cc3)c2)=C(C)C1=O [Example 117] | 20 µM | – |
| COC1=C(OC)C(=O)C(Cc2ccc(O)c(C(=O)Nc3ccc(N4CCOCC4)cc3)c2)=C(C)C1=O [Example 118, N-[5-(5,6-Dimethoxy-3-methyl-1,4-benzoquinon-2-yl)methyl-2-hydroxybenzoyl]-4-morpholinoaniline] | 8.3 µM | – |
| COC1=C(OC)C(=O)C(Cc2ccc(O)c(C(=O)Nc3ccc(C#N)cc3)c2)=C(C)C1=O [Example 119, N-[5-(5,6-Dimethoxy-3-methyl-1,4-benzoquinon-2-yl)methyl-2-hydroxybenzoyl]-4-cyanoaniline] | 13 µM | – |
| COC1=C(OC)C(=O)C(Cc2ccc(O)c(C(=O)Nc3ccc(C(F)(F)F)cc3)c2)=C(C)C1=O [Example 120, N-[5-(5,6-Dimethoxy-3-methyl-1,4-benzoquinon-2-yl)methyl-2-hydroxybenzoyl]-4-trifluoromethylaniline] | 1.7 µM | – |
| COC1=C(OC)C(=O)C(Cc2ccc(O)c(C(=O)Nc3cc(C(F)(F)F)cc(C(F)(F)F)c3)c2)=C(C)C1=O [Example 121, N-[5-(5,6-Dimethoxy-3-methyl-1,4-benzoquinon-2-yl)methyl-2-hydroxybenzoyl]-3,5-bistrifluoromethylaniline] | 64 µM | – |
| COC1=C(OC)C(=O)C(Cc2ccc(Oc3ccccc3)c(C(=O)N3CCCc4ccccc43)c2)=C(C)C1=O [Example 124, N-[5-(5,6-Dimethoxy-3-methyl-1,4-benzoquinon-2-yl)methyl-2-phenoxybenzoyl]-1,2,3,4-tetrahydroquinoline] | 46 µM | – |
| COC1=C(OC)C(=O)C(Cc2ccc(Oc3ccccc3)c(C(=O)N3CCCCC3C)c2)=C(C)C1=O (stereo not drawn) [Example 125, N-[5-(5,6-Dimethoxy-3-methyl-1,4-benzoquinon-2-yl)methyl-2-phenoxybenzoyl]-2-methylpiperidine] | 19 µM | – |
| COC1=C(OC)C(=O)C(Cc2ccc(OCc3cccnc3)c(C(=O)N3CCCc4ccccc43)c2)=C(C)C1=O [Example 126, N-[5-(5,6-Dimethoxy-3-methyl-1,4-benzoquinon-2-yl)methyl-2-(3-pyridylmethyloxy)benzoyl]-1,2,3,4-tetrahydroquinoline] | 24 µM | – |
| COC1=C(OC)C(=O)C(Cc2ccc(OCc3cccnc3)c(C(=O)N3CCC(C)CC3)c2)=C(C)C1=O [Example 127, N-[5-(5,6-Dimethoxy-3-methyl-1,4-benzoquinon-2-yl)methyl-2-(3-pyridylmethyloxy)benzoyl]-4-methylpiperidine] | 24 µM | – |
| COC1=C(OC)C(=O)C(Cc2ccc(OCc3cccnc3)c(C(=O)Nc3cc(OC)c(OC)c(OC)c3)c2)=C(C)C1=O [Example 128, N-[5-(5,6-Dimethoxy-3-methyl-1,4-benzoquinon-2-yl)methyl-2-(3-pyridylmethyloxy)benzoyl]-3,4,5-trimethoxyaniline] | 19 µM | – |
| COC(=O)c1cc(CC2=C(C)C(=O)C(OC)=C(OC)C2=O)ccc1OCC(=O)OC(C)(C)C [Example 130, Methyl 5-(5,6-Dimethoxy-3-methyl-1,4-benzoquinon-2-yl)methyl-2-(tert-butoxycarbonylmethyloxy)benzoate] | 59 µM | – |
| COC1=C(OC)C(=O)C(Cc2ccc(C(=O)Nc3ccc(Cl)nc3)c(O)c2)=C(C)C1=O [Example 131, N-(6-Chloropyridin-3-yl)-4-(5,6-dimethoxy-3-methyl-1,4-benzoquinon-2-yl)methyl-2-hydroxybenzamide] | – | 200.2 to 201.9 |
| COC1=C(OC)C(=O)C(Cc2ccc(C(=O)Nc3cccnc3Cl)c(OC(C)=O)c2)=C(C)C1=O [Example 132, N-(2-Chloropyridin-3-yl)-4-(5,6-dimethoxy-3-methyl-1,4-benzoquinon-2-yl)methyl-2-acetoxybenzamide] | – | 113.5 to 115.1 |
| COC1=C(OC)C(=O)C(Cc2ccc(C(=O)Nc3cccnc3Cl)c(O)c2)=C(C)C1=O [Example 133] | – | 200.2 to 202.6 |
| COC1=C(OC)C(=O)C(Cc2ccc(C(=O)Nc3ccc(OC)nc3)c(OC(C)=O)c2)=C(C)C1=O [Example 134, N-(6-Methoxypyridin-3-yl)-4-(5,6-dimethoxy-3-methyl-1,4-benzoquinon-2-yl)methyl-2-acetoxybenzamide] | – | 124.7 to 125.5 |
| COC1=C(OC)C(=O)C(Cc2ccc(C(=O)Nc3ccc(OC)nc3)c(O)c2)=C(C)C1=O [Example 135, N-(6-Methoxypyridin-3-yl)-4-(5,6-dimethoxy-3-methyl-1,4-benzoquinon-2-yl)methyl-2-hydroxybenzamide] | – | 194.3 to 196.5 |
| COC1=C(OC)C(=O)C(Cc2ccc(C(=O)Nc3ccc(S(=O)(=O)C(F)(F)F)cc3)c(O)c2)=C(C)C1=O [Example 137, N-[4-(5,6-Dimethoxy-3-methyl-1,4-benzoquinon-2-yl)methyl-2-hydroxybenzoyl]-4-(trifluoromethylsulfonyl)aniline] | – | 186.9 to 187.5 |

| SMILES | IC50 [1] | melting point [°C] |
| --- | --- | --- |
| COC1=C(OC)C(=O)C(Cc2ccc(C(=O)Nc3cccnc3)c(OC(C)=O)c2)=C(C)C1=O [Example 138, N-(Pyridin-3-yl)-4-(5,6-dimethoxy-3-methyl-1,4-benzoquinon-2-yl)methyl-2-acetoxybenzamide] | – | 158.2 to 160 |
| COC1=C(OC)C(=O)C(Cc2ccc(C(=O)Nc3cccnc3)c(O)c2)=C(C)C1=O [Example 139, N-(Pyridin-3-yl)-4-(5,6-dimethoxy-3-methyl-1,4-benzoquinon-2-yl)methyl-2-hydroxybenzamide] | – | 138.1 to 139.7 |
| COC1=C(OC)C(=O)C(Cc2ccc(C(=O)Nc3ccncc3)c(O)c2)=C(C)C1=O [Example 140, N-(Pyridin-4-yl)-4-(5,6-dimethoxy-3-methyl-1,4-benzoquinon-2-yl)methyl-2-hydroxybenzamide] | – | 181.4 to 183.3 |
| COC1=C(OC)C(=O)C(Cc2ccc(OC(C)=O)c(C(=O)Nc3ccc(F)cc3)c2)=C(C)C1=O [Example 141, N-[5-(5,6-Dimethoxy-3-methyl-1,4-benzoquinon-2-yl)methyl-2-acetoxybenzoyl]-4-fluoroaniline] | – | 128.5 to 130.5 |
| COC1=C(OC)C(=O)C(Cc2ccc(OC(C)=O)c(C(=O)Nc3cccc([N+](=O)[O-])c3)c2)=C(C)C1=O [Example 143, N-[5-(5,6-Dimethoxy-3-methyl-1,4-benzoquinon-2-yl)methyl-2-acetoxybenzoyl]-3-nitroaniline] | – | 152 to 153.5 |
| COC1=C(OC)C(=O)C(Cc2ccc(O)c(C(=O)Nc3cccc([N+](=O)[O-])c3)c2)=C(C)C1=O [Example 144, N-[5-(5,6-Dimethoxy-3-methyl-1,4-benzoquinon-2-yl)methyl-2-hydroxybenzoyl]-3-nitroaniline] | – | 153 to 154 |
| COC1=C(OC)C(=O)C(Cc2ccc(OC(C)=O)c(C(=O)Nc3ccccc3C(F)(F)F)c2)=C(C)C1=O [Example 145, N-[5-(5,6-Dimethoxy-3-methyl-1,4-benzoquinon-2-yl)methyl-2-acetoxybenzoyl]-2-trifluoromethylaniline] | – | 57.5 to 60 |
| COC1=C(OC)C(=O)C(Cc2ccc(OC(C)=O)c(C(=O)Nc3cccc(C(F)(F)F)c3)c2)=C(C)C1=O [Example 151, N-[5-(5,6-Dimethoxy-3-methyl-1,4-benzoquinon-2-yl)methyl-2-acetoxybenzoyl]-3-trifluoromethylaniline] | – | 98 to 100 |
| COC1=C(OC)C(=O)C(Cc2ccc(OC(C)=O)c(C(=O)N(C)c3ccc(OC)cc3)c2)=C(C)C1=O [Example 163, N-Methyl-[5-(5,6-dimethoxy-3-methyl-1,4-benzoquinon-2-yl)methyl-2-acetoxybenzoyl]-4-methoxyaniline] | 30 µg/mL | – |
| COC1=C(OC)C(=O)C(Cc2ccc(O)c(C(=O)N(C)c3ccc(OC)cc3)c2)=C(C)C1=O [Example 164, N-Methyl-[5-(5,6-dimethoxy-3-methyl-1,4-benzoquinon-2-yl)methyl-2-hydroxybenzoyl]-4-methoxyaniline] | 20 µg/mL | – |
| COC1=C(OC)C(=O)C(Cc2ccc(OC(C)=O)c(C(=O)Nc3cccnc3)c2)=C(C)C1=O [Example 201, N-(Pyridin-3-yl)-5-(5,6-dimethoxy-3-methyl-1,4-benzoquinon-2-yl)methyl-2-acetoxybenzamide] | 16 µg/mL | – |
| COC1=C(OC)C(=O)C(Cc2ccc(O)c(C(=O)Nc3ccc(N)cc3)c2)=C(C)C1=O [Example 204, N-[5-(5,6-Dimethoxy-3-methyl-1,4-benzoquinon-2-yl)methyl-2-hydroxybenzoyl]-p-phenylenediamine] | 47 µg/mL | – |
| COC1=C(OC)C(=O)C(Cc2cccc(C(=O)Nc3cccnc3)c2OC(C)=O)=C(C)C1=O [Example 206, N-(Pyridin-3-yl)-3-(5,6-dimethoxy-3-methyl-1,4-benzoquinon-2-yl)methyl-2-acetoxybenzamide] | 87 µg/mL | – |
| COC1=C(OC)C(=O)C(Cc2ccc(OC(C)=O)c(C(=O)Nc3cccnc3N3CCOCC3)c2)=C(C)C1=O [Example 222, N-(2-Morpholinopyridin-3-yl)-5-(5,6-dimethoxy-3-methyl-1,4-benzoquinon-2-yl)methyl-2-acetoxybenzamide] | 77 µg/mL | – |
| COC1=C(OC)C(=O)C(Cc2ccc(OC(C)=O)c(C(=O)Nc3ccc(N4CCOCC4)nc3)c2)=C(C)C1=O [Example 224, N-(6-Morpholinopyridin-3-yl)-5-(5,6-dimethoxy-3-methyl-1,4-benzoquinon-2-yl)methyl-2-acetoxybenzamide] | 24 µg/mL | – |
| COC1=C(OC)C(=O)C(Cc2ccc(OC(C)=O)c(C(=O)Nc3ccnc(Cl)c3)c2)=C(C)C1=O [Example 226, N-(2-Chloropyridin-4-yl)-5-(5,6-dimethoxy-3-methyl-1,4-benzoquinon-2-yl)methyl-2-acetoxybenzamide] | 19 µg/mL | – |
